Experimental data published in ChEMBL document CHEMBL1138055, “Tetraoxane antimalarials and their reaction with Fe(II)” (J Med Chem, 2006).

Legend:
[1] = test system: IGROV-1; assay: Antiproliferative activity against human IGROV1 cell line after 48 hrs; type: functional; settings: Homo sapiens, IGROV-1, 48 h
[2] = test system: Plasmodium falciparum
Description: (§1) Antimalarial activity against Plasmodium falciparum W2

[3] = test system: LOX IMVI; assay: Antiproliferative activity against human LOX IMVI cell line after 48 hrs; type: functional
[4] = test system: UO-31; assay: Antiproliferative activity against human UO31 cell line after 48 hrs; type: functional; settings: Homo sapiens, UO-31, 48 h; for CC50: read-out: LC50 (the source's name)
[5] = test system: Plasmodium falciparum; remark: listed apart in the source
Description: (§2) Antimalarial activity against Plasmodium falciparum D6

[6] = test system: Plasmodium falciparum; remark: listed apart in the source
Description: (§3) Antimalarial activity against Plasmodium falciparum TM91C235

[7] = test system: Plasmodium falciparum; assay: microbe, parasite or virus in culture; settings: TM91C235
Description: as §3

[8] = test system: Plasmodium falciparum; assay: microbe, parasite or virus in culture; settings: W2
Description: as §1

[9] = test system: Plasmodium falciparum; assay: microbe, parasite or virus in culture; settings: D6
Description: as §2

[10] = read-out: LC50 (the source's name)

## CCCOC(=O)CC[C@@H](C)[C@H]1CC[C@H]2[C@@H]3[C@H](OC(C)=O)C[C@@H]4CC5(CC[C@]4(C)[C@H]3C[C@H](OC(C)=O)[C@]12C)OOC1(CCC(C(=O)OCCC)CC1)OO5 (stereo in doubt; 5a)
[1]
  GI50: 1990 nM
  TGI: 6160 nM
[1]; [10]
  CC50: > 100000 nM
[2]
  IC50: 9 nM
  IC90: 17.4 nM
[3]
  GI50: 1090 nM
  TGI: 2740 nM
[3]; [10]
  CC50: 6910 nM
[4]
  GI50: 1150 nM
  TGI: 2440 nM
  CC50: 5190 nM
[5]
  IC50: 6.7 nM
  IC90: 9.4 nM
[6]
  IC50: 8.8 nM
  IC90: 18 nM

## CCCOC(=O)CC[C@@H](C)[C@H]1CC[C@H]2[C@@H]3[C@H](OC(C)=O)C[C@@H]4CC5(CC[C@]4(C)[C@H]3C[C@H](OC(C)=O)[C@]12C)OOC1(CCC(C(=O)OCCC)CC1)OO5 (stereo in doubt; 5b)
[2]
  IC50: 41.4 nM
  IC90: 83.5 nM
[5]
  IC50: 30.3 nM
  IC90: 47.4 nM
[6]
  IC50: 42.2 nM
  IC90: 75.8 nM

## CC(=O)O[C@H]1C[C@H]2[C@@H]([C@H](OC(C)=O)C[C@@H]3CC4(CC[C@@]32C)OOC2(CCC(C(=O)O)CC2)OO4)[C@@H]2CC[C@H]([C@H](C)CCC(=O)O)[C@@]12C (stereo in doubt; 6a)
[2]
  IC50: 135 nM
  IC90: 156 nM
[4]
  GI50: 1740 nM
  TGI: 3650 nM
  CC50: 7660 nM
[5]
  IC50: 98.3 nM
  IC90: 147 nM
[6]
  IC50: 135 nM
  IC90: 257 nM

## CC(=O)O[C@H]1C[C@H]2[C@@H]([C@H](OC(C)=O)C[C@@H]3CC4(CC[C@@]32C)OOC2(CCC(C(=O)O)CC2)OO4)[C@@H]2CC[C@H]([C@H](C)CCC(=O)O)[C@@]12C (stereo in doubt; 6b)
[7]
  IC90: > 300 nM
[2]
  IC50: > 300 nM
[8]
  IC90: > 300 nM
[5]
  IC50: > 300 nM
  IC90: > 300 nM
[6]
  IC50: > 300 nM

## CC(=O)O[C@H]1C[C@H]2[C@@H]([C@H](OC(C)=O)C[C@@H]3CC4(CC[C@@]32C)OOC2(CCC(C(N)=O)CC2)OO4)[C@@H]2CC[C@H]([C@H](C)CCC(N)=O)[C@@]12C (stereo in doubt; 8)
[2]
  IC50: 121 nM
  IC90: 265 nM
[5]
  IC50: 119 nM
  IC90: 196 nM
[6]
  IC50: 168 nM
  IC90: 249 nM

## CCCNC(=O)CC[C@@H](C)[C@H]1CC[C@H]2[C@@H]3[C@H](OC(C)=O)C[C@@H]4CC5(CC[C@]4(C)[C@H]3C[C@H](OC(C)=O)[C@]12C)OOC1(CCC(C(=O)NCCC)CC1)OO5 (stereo in doubt; 9)
[2]
  IC50: 18.1 nM
  IC90: 39.6 nM
[5]
  IC50: 10.5 nM
  IC90: 17.8 nM
[6]
  IC50: 14.9 nM
  IC90: 63.2 nM

## CCCNC(=O)CC[C@@H](C)[C@H]1CC[C@H]2[C@@H]3[C@H](OC(C)=O)C[C@@H]4CC5(CC[C@]4(C)[C@H]3C[C@H](OC(C)=O)[C@]12C)OOC1(CCC(C(=O)NCCC)CC1)OO5 (stereo in doubt; 10)
[2]
  IC50: 58.3 nM
[8]
  IC90: 78 nM
[5]
  IC50: 38.5 nM
  IC90: 56 nM
[6]
  IC50: 52.3 nM
  IC90: 127 nM

## CC(=O)O[C@H]1C[C@H]2[C@@H]([C@H](OC(C)=O)C[C@@H]3CC4(CC[C@@]32C)OOC2(CCC(C(=O)NCCN(C)C)CC2)OO4)[C@@H]2CC[C@H]([C@H](C)CCC(=O)NCCN(C)C)[C@@]12C (stereo in doubt; 12)
[9]
  IC50: 128 nM
  IC90: 187 nM
[7]
  IC50: 145 nM
  IC90: 160 nM
[8]
  IC50: 132 nM
  IC90: 167 nM

## CC(=O)O[C@H]1C[C@H]2[C@@H]([C@H](OC(C)=O)C[C@@H]3CC4(CC[C@@]32C)OOC2(CCC(C(=O)Nc3ccccc3)CC2)OO4)[C@@H]2CC[C@H]([C@H](C)CCC(=O)Nc3ccccc3)[C@@]12C (stereo in doubt; 14)
[2]
  IC50: 52.9 nM
  IC90: 74.2 nM
[5]
  IC50: 29.6 nM
  IC90: 44.5 nM
[6]
  IC50: 42.8 nM
  IC90: 86.6 nM
